Results: US8450093B1, “Adaptive engineering of clostridium for increased butanol production” (The Ohio State University, priority 2010, dated 2013)

Columns and labels:
BA 101 = conditions: 12 g/L butanol
Experimental: (§1) Butanol tolerances of different strains are investigated and compared according to the maximal specific growth rates achieved under the challenge of different concentrations of butanol. Seed cultures are prepared the same way as those used for fermentor fermentation. Then, seeds of different strains are inoculated into 10 ml of CGM medium in serum tubes supplemented with different concentrations of butanol. The tubes are incubated at 37° C. and optical densities (OD600) are measured every 2 h. Growth curves may be drawn according to the OD600 data. Maximal specific growth rates (h^−1) of different strains under different butanol concentrations may be calculated based on the growth curves.

JB200 = conditions: CGM medium, 37° C., OD600
Experimental: as §1

ATCC 824 = conditions: 12 g/L butanol
Experimental: as §1

[1] = system: C. acetobutylicum ATCC 55025 (parental strain)
Experimental: as §1

NCIMB 8052 = conditions: 12 g/L butanol
Experimental: as §1

Substance: butanol
- growth in the presence of butanol (BA 101): none of them could grow
- butanol concentration at which cells still grew (JB200): 16 g/L
- growth in the presence of butanol (ATCC 824): none of them could grow
- butanol concentration above which cell growth stopped ([1]; CGM medium, 37° C., OD600): higher than 12 g/L
- butanol concentration at which growth usually stops (cells lysed) ([1]; general statement, parental strain): 10-12 g/L
- growth in the presence of butanol (NCIMB 8052): none of them could grow
